As a reminder, the IC50 is the concentration that inhibits the measured activity by half.

Read-outs that look alike come from different tables or passages of the source.

The values below come from patent US20210015830A1, “COMPOSITION FOR INHIBITING REACTIVE OXYGEN SPECIES PRODUCTION” (SUNTORY HOLDINGS LIMITED, priority 2017, published 2021).

One series has as its target T1, NADPH oxidase (NOX) (Homo sapiens, UniProt P04839).
T1 construct: HL-60 cells were differentiated into NOX-expressing granulocytes; endogenous in cells; host or cells: HL-60 cells differentiated into granulocytes with 1% DMSO
T1 sequence (P04839 1-570): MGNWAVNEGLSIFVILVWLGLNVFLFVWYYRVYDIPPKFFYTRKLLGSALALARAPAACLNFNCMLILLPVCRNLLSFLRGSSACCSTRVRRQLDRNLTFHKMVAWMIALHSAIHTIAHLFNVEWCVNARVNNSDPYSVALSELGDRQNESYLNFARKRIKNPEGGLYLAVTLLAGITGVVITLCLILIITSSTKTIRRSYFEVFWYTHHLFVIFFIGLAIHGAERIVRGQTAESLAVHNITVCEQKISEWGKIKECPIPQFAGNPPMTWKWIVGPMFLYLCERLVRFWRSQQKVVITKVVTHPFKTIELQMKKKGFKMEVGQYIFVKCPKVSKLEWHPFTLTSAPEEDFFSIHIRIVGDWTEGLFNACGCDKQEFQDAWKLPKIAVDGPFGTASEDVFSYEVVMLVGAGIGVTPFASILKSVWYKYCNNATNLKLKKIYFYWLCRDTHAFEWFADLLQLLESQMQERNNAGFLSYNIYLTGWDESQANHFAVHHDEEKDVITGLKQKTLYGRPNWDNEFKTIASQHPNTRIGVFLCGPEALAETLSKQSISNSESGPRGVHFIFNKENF
T1 sequence (P13498 1-195 partner): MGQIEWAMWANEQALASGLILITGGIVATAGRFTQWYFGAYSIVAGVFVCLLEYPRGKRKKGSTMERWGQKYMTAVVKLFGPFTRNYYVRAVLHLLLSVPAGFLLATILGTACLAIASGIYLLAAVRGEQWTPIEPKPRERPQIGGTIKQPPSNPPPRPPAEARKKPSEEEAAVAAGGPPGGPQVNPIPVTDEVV
As to the kind of experiment: Measurement of NOX inhibitory activity in differentiated HL-60 cells (PMA-activated superoxide production, WST-1 formazan absorbance at 450 nm). The series is classed as cell-based. The following applies: for Inhibitory activity ratio: 3-acetyl triterpenic acid versus the triterpenic acid without acetyl group, formula (i). An excerpt: It is known that undifferentiated human myeloid leukemia HL-60 cells have an ability to proliferate, but differentiate into mature granulocytes by adding DMSO (dimethyl sulfoxide), retinoic acid, or the like and lose their proliferative ability. Mature HL-60 cells express NOX that serves as an indicator of differentiation. NOX can be used as an indicator for evaluating NOX inhibitory activity.
HL-60 cells were differentiated into NOX-expressing granulocytes by the following method.
Then, the suspension was dispensed into cell culture dishes (100 mm) so as to be 15 mL each, and the cells were cultured in a CO2 incubator (37° C.) for 3 days.
The differentiated HL-60 cells were used to measure NOX inhibitory activity as will be described below.
WST-1 (2-(4-iodophenyl)-3-(4-nitrophenyl)-5-(2,4-disulfophenyl)-2H-tetrazolium, monosodium salt) was dissolved in a D-MEM medium so as to be 0.8 mg/mL, and thus a WST-1 solution was prepared. WST-1 reacts with superoxide and produces yellow formazan. Yellow formazan absorbs a wavelength of 450 nm, and, therefore, the amount of yellow formazan can be measured by measuring absorbance at a wavelength of 450 nm. Also, the amount of yellow formazan produced is proportional to the amount of superoxide during the reaction, and, therefore, the amount of superoxide can be measured by measuring the amount of yellow formazan produced.
PMA (phorbol 12-myristate 13-acetate) was dissolved in a D-MEM medium so as to be 4 μM, and thus a PMA solution was prepared.
PMA is known to function to activate NOX and causes superoxide production.
The differentiated HL-60 cells were collected by centrifugation, and suspended in a D-MEM medium containing neither FBS nor phenol red so as to be 5×10^6 cells/mL.
The cell suspension was added into a 96-well microplate so as to be 25 μL per well.
Next, 25 μL of the WST-1 solution prepared as described above was added to the wells.
After adding the solutions, the cell suspensions were stirred.
Thereafter, 25 μL of the prepared PMA solution was added (a final PMA concentration in the medium being 1 μM) to activate NOX and carry out a reaction at 37° C. for 60 minutes.
Then, by measuring absorbance at a wavelength of 450 nm, the amount of yellow formazan produced and thus the amount of superoxide produced by NOX were measured.
Inhibitory activity ratio=(IC50 of triterpenic acid having acetyl group)/(IC50 of triterpenic acid without acetyl group) (i)
Based on the obtained measurement results, the IC50 (μg/mL) of fraction 1 and fraction 2 was determined.
Moreover, the inhibitory activity ratio of triterpenic acid having an acetyl group in fraction 2 to triterpenic acid without an acetyl group in fraction 1 was calculated using formula (i).
In general terms: Tetrazolium assays rely on reduction of a dye to a coloured formazan, in cell work by metabolically active cells.

The test system of series [1] is Senescent Accelerated Model Prone 10 (SAMP10) mouse. As to the kind of experiment: Brain function evaluation by passive avoidance test (step-through test) in senescence accelerated model. The series is classed as in vivo. The settings on record: SAMP10 mice, AIN-93M containing 0.006% ursolic acid or 0.002% acetylursolic acid for 12 weeks, evaluated at 11 months old. Here is the method:
The effect of inhibiting a decline in brain function of the Aronia extract was evaluated using the extract powder obtained in Example 2. The Senescent Accelerated Model Prone 10 (SAMP10) mouse, which is one of the senescence accelerated models, is known to show age-related decline in brain function at an early stage, and can be used to evaluate effects on an age-related decline in brain function. Accordingly, this animal was used to investigate the brain function ameliorating effect of the Aronia extract. A series of animal experiments were carried out based on a plan that complies with the animal welfare management law and other relevant laws and that is approved by the head of an organization after being reviewed by an institutional animal experiment committee.
(§1) As for a young (young control) group, SAMP10 mice at 8 weeks old were purchased, acclimated for 7 days, and received AIN-93M (manufactured by CLEA Japan Inc.) as a base food for 12 weeks, and then the brain function was evaluated at 4 months old (N=15). As for an elderly group, mice at 14 weeks old were purchased, acclimated until 8 months old, randomly divided into 2 groups, received AIN-93M or AIN-93M containing 0.02% Aronia extract for 12 weeks, and then the brain function was evaluated at 11 months old (an elderly control group (N=26), an elderly Aronia received group (N=18)). The food was changed once a week, and the food intake and the body weight were measured once a week.
A brain function was evaluated using a passive avoidance test (a step-through test). […]
Mice were placed in a light room (9 cm width, 11.5 cm depth, 15 cm height) of a step-through passive avoidance response tester (manufactured by Muromachi Kikai Co., Ltd.), then a door to a dark room (14 cm width, 17.5 cm depth, 15 cm height) was opened 30 seconds later, and the time until the mice entered the dark room (the light room latency) was measured. […]
A retention trial was performed the day after the acquisition trial. The same operation as the acquisition trial was performed on the mice, and the latency in light room was measured. […] The latency was measured up to 300 seconds, and evaluations were made such that the longer the latency of the retention trial is, the higher the memory function is.
The brain function ameliorating effects of ursolic acid and acetylursolic acid contained in Aronia were compared in terms of the recovery of light room latency. […] When the mice reached 11 months old, a brain function was evaluated according to the method of Reference Example 1 (0.006% ursolic acid received group (N=8), and 0.002% acetylursolic acid received group (N=10)).

Series [2] is described as follows: Body weight and food intake of SAMP10 mice during 12-week feeding. The series is classed as in vivo, mouse. The following applies: AIN-93M containing 0.006% ursolic acid or 0.002% acetylursolic acid for 12 weeks. Here is the method: as §1
The brain function ameliorating effects of ursolic acid and acetylursolic acid contained in Aronia were compared in terms of the recovery of light room latency. SAMP10 mice at 14 weeks old were purchased, acclimated until 8 months old, then randomly divided into two groups, and received AIN-93M containing 0.006% ursolic acid or AIN-93M containing 0.002% acetylursolic acid for 12 weeks. When the mice reached 11 months old, a brain function was evaluated according to the method of Reference Example 1 (0.006% ursolic acid received group (N=8), and 0.002% acetylursolic acid received group (N=10)).

Setting [3] is: standard products, differentiated HL-60 cells, 1 μM PMA, 37° C., 60 minutes, read-out: IC50.

On to `CC(=O)O[C@H]1CC[C@]2(C)[C@H]3CC=C4[C@@H]5CC(C)(C)CC[C@]5(C(=O)O)CC[C@@]4(C)[C@]3(C)CC[C@H]2C1(C)C` [3-Acetyloleanolic acid], for which, at NADPH oxidase (NOX), half-maximal inhibition (IC50) was put at 10 µM and the Inhibitory activity ratio was 4.4 times.

Regarding `CC(=O)O[C@H]1CC[C@]2(C)[C@H]3CC=C4[C@@H]5[C@@H](C)[C@H](C)CC[C@]5(C(=O)O)CC[C@@]4(C)[C@]3(C)CC[C@H]2C1(C)C` [3-Acetylursolic acid], in series [1], the “latency in light room, acquisition trial” value is reported as “no difference between groups” and the “latency in light room, retention trial” value is “stronger effect on ameliorating brain function than ursolic acid”. Also, on NADPH oxidase (NOX), the Inhibitory activity ratio amounted to 7.3 times. Also, the half-inhibitory concentration (IC50) on NADPH oxidase (NOX) (setting [3]) came to 6 µM.

`C[C@H]1[C@H](C)CC[C@]2(C(=O)O)CC[C@]3(C)C(=CC[C@@H]4[C@@]5(C)CC[C@H](O)C(C)(C)[C@@H]5CC[C@]43C)[C@H]12` [Ursolic acid, reference compound]: in series [1], the “latency in light room, acquisition trial” value is listed as “no difference between groups” and the “latency in light room, retention trial” value was “act to inhibit an age-related decline in brain function”. Further, at NADPH oxidase (NOX) (setting [3]), the IC50 turned out to be 44 µM. In series [2], the “body weight and food intake” value is listed as “no difference”.
